Data reported in US7358064B2, “Kits for measuring cellular transmembrane potential changes” (Molecular Devices Corporation, priority 2001, dated 2008).

Legend:
[1] = Octanol/water partition of DiBAC and DiSBAC dyes, read by absorption spectra; type: physicochemical; details: for Absorbance in Octanol / Absorbance in Water: 3 mM DMSO stock partitioned in 1:1 octanol/water; for Absorbance in Octanol: octanol layer; for Absorbance in Water: water layer; for Absorbance in Water/Absorbance in Octanol: 1:1 octanol/water partition; for Relative Values: water/octanol ratio relative to DiBAC1(3) (DiBAC dyes) or DiSBAC1(3) (DiSBAC dyes)
Protocol: (§1) DiSBAC1(3), DiSBAC2(3), DiSBAC3(3), DiSBAC4(3), DiBAC1(3) and DiBAC4(3) are dissolved in DMSO (3 mM). The DMSO stock solutions are respectively partitioned in 1:1 octanol/water mixture. The concentrations of the oxonol dyes in octanol and water layers are determined by absorption spectra.

P2X2 cells = test: FLIPR membrane potential assay, fluorescence response of dyes in P2X2 cells; type: cell-based; details: for Fluorescence enhancement by 10 μM ATP stimulation (in folds) / Response speed: P2X2 cells, FLIPR; for Response speed: ATP stimulation; for Response to membrane potential change (speed, in words): compared with other DiBAC/DiSBAC dyes; for Signal strength: compared with other members of the DiBAC and DiSBAC family, FLIPR and other fluorescence devices
From the text: This specific example illustrates how to use DiSBA1(3) in P2X2 cells in combination with the FLIPR™ fluorescent imaging plate reader sold by Molecular Devices Corp. of Sunnyvale, Calif. P2X2 cells are 1321 N1 astrocytoma cells transfected to overexpress the purinergic P2X2 ligand-gated ion channel. P2X2 belongs to a class of purinergic ion channels that pass calcium and sodium in response to purine, including adenosine 5′-triphosphate (ATP). P2X2 cells are propagated and maintained in DME (high glucose), 10% FCS, 1× Pen/Strep and 2 mM L-glutamine. Doubling time is approximately 36 hours. P2X2 cells should be split at a 1 to 2 ratio upon confluence. The cells should be carried for no more than 20 passages. When approaching this limit, a new frozen vial of cells should be resurrected. Following is a typical kit procedure: • 1. Plate 40,000 P2X2 cells in 100 μL per well for 96 well plates or 10,000 P2X2 cells in 25 μL per well for 384 well plates for overnight.
2. Prepare 1× Loading Buffer. • 2.1 To prepare the 1× Assay Buffer, pipette 10 mL of 10× Reagent Buffer (1× Hanks' Balance Saline Solution+20 mM HPEPES, pH 7.40) and dilute in 90 mL of distilled water. Adjust pH to 7.4 using 1.0 N NaOH and/or 1.0 N HCl. • 2.2 To prepare 10 mM stock solution of DiSBAC1(3), dissolve 3.8 mg DiSBAC1(3) in 1 mL DMSO • 2.3 To prepare 10% pluronic acid, dissolve 400 mg pluronic acid in 4 mL water. Heat to 37° C. to complete dissolution. • 2.4 To prepare 1× Loading Buffer, add 30 μL of stock DiSBAC1(3), 8 μL 10% pluronic acid, and 20.0 mg DB71 in the 1× FLIPR assay buffer. • 3. Load Cells with 1× Loading Buffer • 4. Remove cell plates from the incubator • 5. Add 100 μL of 1× Loading Buffer per well of 96-well plates or 25 μL per well of 384-well plates. • 6. Incubate plates at 37° C. for 30 minutes. • 7. Run the FLIPR Membrane Potential Assay • 7.1 Make 5× compound plate prior to running the FLIPR assay. Dissolve 27.5 mg of ATP (Sigma Cat# A3377) in 1 mL of sterile water to make a 50 mM stock solution. […] Choose p2x2.fcf for experimental setup in the FLIPR software. Set up the appropriate experiment parameters. • 7.3 After incubation, transfer the plates directly to FLIPR and begin the Membrane Potential Assay. • 8. Run FLIPR and perform data analysis.
DiSBAC1(3), DiSBAC2(3), DiSBAC3(3), DiSBAC4(3), DiBAC1(3) and DiBAC4(3) are dissolved in DMSO (1 mM). The stock solutions are respectively used to assay membrane potential changes in the P2X2 cells in combination with FLIPR™ as described in Example 2.

[2] = target: T1, purinergic P2X2 ligand-gated ion channel (Homo sapiens, UniProt Q9UBL9); test: ATP dose response in FLIPR membrane potential assay with DiSBAC1(3); type: cell-based; details: ATP dose response in P2X2 cells loaded with DiSBAC1(3); worded as 'should be approximately'
T1 construct: expressed in transfected cells; host or cells: 1321N1 astrocytoma cells
T1 sequence (Q9UBL9 1-471): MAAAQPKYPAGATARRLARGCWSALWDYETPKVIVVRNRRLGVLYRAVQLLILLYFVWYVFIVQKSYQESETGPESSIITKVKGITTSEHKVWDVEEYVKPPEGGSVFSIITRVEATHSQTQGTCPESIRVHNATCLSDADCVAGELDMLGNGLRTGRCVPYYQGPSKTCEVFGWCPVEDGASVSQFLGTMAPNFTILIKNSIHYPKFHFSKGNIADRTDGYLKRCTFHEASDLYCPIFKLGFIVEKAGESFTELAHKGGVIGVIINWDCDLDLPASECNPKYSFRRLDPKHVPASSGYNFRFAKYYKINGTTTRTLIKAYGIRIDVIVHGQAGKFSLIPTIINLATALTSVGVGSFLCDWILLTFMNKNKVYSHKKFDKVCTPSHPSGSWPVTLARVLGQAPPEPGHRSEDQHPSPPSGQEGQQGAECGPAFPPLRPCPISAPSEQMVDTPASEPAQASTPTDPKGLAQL

[3] = tested on: voltage-gated sodium channels; type: cell-based, rat
[4] = type: physicochemical; details: compared with the other oxonol dyes
Protocol: as §1

PC12 = test: DiSBAC1(3) as fluorescent indicator of transmembrane potential depolarization of PC12 cells; type: cell-based, rat; details: 75 mM potassium gluconate, 2.5 μM dye, 200 μM Direct Blue 71

SMILES	Absorbance in Octanol [1]	Absorbance in Water [1]	Absorbance in Water/Absorbance in Octanol [1]	Relative Values [1]	Fluorescence enhancement by 10 μM ATP stimulation (in folds) (P2X2 cells) [folds]	Response speed (P2X2 cells)	EC50 [2] [nM]	Change in membrane potential (fluorescence increase) upon potassium addition [3]	Response to membrane potential change (speed, in words) (P2X2 cells)	Response to membrane potential change (speed, in words) (P2X2 cells; listed as DiBAC1 (3))	Signal strength (P2X2 cells)	Water solubility [4]	Hydrophilicity ([1]; compared with the other oxonol dyes)	Sensitivity to membrane potential change (P2X2 cells; compared with the rest of the DiSBACs)	Fluorescence change on cell depolarization (PC12)
CCCCN1C(=O)C(=CC=Cc2c(O)n(CCCC)c(=O)n(CCCC)c2=O)C(=O)N(CCCC)C1=O [DiBAC4(3)]	2.854	0.002501	0.00088	0.00021	3.3	slow									
Nc1ncnc2c1ncn2[C@@H]1O[C@H](COP(=O)(O)OP(=O)(O)OP(=O)(O)O)[C@@H](O)[C@H]1O [ATP, adenosine 5′-triphosphate]							10 to 100								
CCCN1C(=O)C(=CC=Cc2c(O)n(CCC)c(=S)n(CCC)c2=O)C(=O)N(CCC)C1=S [DiSBAC3(3)]	4.331	0.002256	0.0005	0.0077	14.5	slow									
CCN1C(=O)C(=CC=Cc2c(O)n(CC)c(=S)n(CC)c2=O)C(=O)N(CC)C1=S [DiSBAC2(3)]	2.187	0.01143	0.0052	0.078	38.6	moderate									
NC1=N[C@H](O)[C@H]2[C@H]3O[C@]4(O)O[C@@H]([C@@H](O)[C@@]2(N1)[C@@H]4O)[C@]3(O)CO [TTX, tetrodotoxin]								smaller increase in fluorescence							
CN1C(=O)C(=CC=Cc2c(O)n(C)c(=O)n(C)c2=O)C(=O)N(C)C1=O [DiBAC1(3)]	0.3104	1.297	4.179	1	3.7	fast			much faster response	faster response	stronger signal	greater water solubility			
CN1C(=O)C(=CC=Cc2c(O)n(C)c(=S)n(C)c2=O)C(=O)N(C)C1=S [DiSBAC1(3), Bis-(1,3-dimethylthiobarbituric acid)trimethine oxonol]	0.9126	0.06147	0.0674	1	108.5	fast			faster response		stronger signal		much more hydrophilic	much more sensitive	increased DiSBAC1(3) fluorescence
CCCCN1C(=O)C(=CC=Cc2c(O)n(CCCC)c(=S)n(CCCC)c2=O)C(=O)N(CCCC)C1=S [DiSBAC4(3)]	3.226	0.003318	<0.0010	<0.0077	2.3	slow									
